Laboratory results reported in BindingDB's records for doi:10.1016/0197-0186(94)90100-7 (Rowett Research Institute, 1994).

Target: T1, Melatonin receptor (Oryctolagus cuniculus, UniProt Q9BE38)
T1 sequence (Q9BE38 whole entry): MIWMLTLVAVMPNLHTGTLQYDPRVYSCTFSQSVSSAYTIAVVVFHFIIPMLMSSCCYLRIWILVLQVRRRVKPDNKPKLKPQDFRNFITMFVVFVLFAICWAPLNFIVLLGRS

COc1cc2c(CCNC(C)=O)c[nH]c2cc1O [melatonin, 6-Hydroxy]
Ki: 74 nM

CC(=O)NCCc1c[nH]c2ccccc12 [N-Acetyltryptamine]
Ki: 1600 nM

COc1ccc2[nH]cc(CCO)c2c1
Ki: > 10000 nM

CC(=O)NCCc1c[nH]c2ccc(O)cc12 [N-Acetyltryptamine,5-Hydroxy]
Ki: 3000 nM

COc1cc2[nH]cc(CCNC(C)=O)c2cc1OC [melatonin, 6-Methoxy]
Ki: 460 nM
